# Values quoted from earlier work in patent US20200224165A1, “METHODS AND COMPOSITIONS FOR REJUVENATION” (priority 2016, published 2020).
# Conditions: without irradiation and chemotherapy
compound,measurement,value
c1cc(CN2CCCNCCNCCCNCC2)ccc1CN1CCCNCCNCCCNCC1 [AMD3100],effectiveness as conditioning for HSCT,not to be sufficiently effective
